The record followed here is patent US20140256015A1, “CAGED COMPOUND WHICH CAN BE PHOTOACTIVATED SELECTIVELY FOR CELL TYPES” (Toho University, priority 2013, published 2014).

The structures appear in SMILES notation.

Data set [1] can be described thus: Photocleaving by 405 nm photoirradiation, monitored by C18 reverse phase HPLC. It is filed as physicochemical. The following applies: 10^−5 M KMOPS solution (0.1% DMSO, pH 7.3), irradiation 0 to 30 s (Bhcmoc-propargyl) or 0 to 300 s (Gal-Bhcmoc-propargyl). The text has this:
The 10^−5 M KMOPS solution (0.1% DMSO, pH 7.3) of Gal-Bhcmoc-propargyl or Bhcmoc-propargyl was irradiated with light with 405 nm. The reaction progress was monitored over photoirradiation time by C18 reverse phase HPLC.

Data set [2] can be described thus: UV spectrum (absorption wavelengths). The data set is classed as physicochemical. Particulars: 10^−5 M KMOPS solution (0.1% DMSO, pH 7.3). As to the method:
UV spectra were measured for the 10^−5 M KMOPS solution (0.1% DMSO, pH 7.3) of Gal-Bhcmoc-propargyl and the 10^−5 M KMOPS solution (0.1% DMSO, pH 7.3) of Bhcmoc-propargyl.

Data set [3] deals with β-Gal (Escherichia coli, UniProt P00722). The data set is described as follows: Conversion of Gal-Bhcmoc-propargyl to Bhcmoc-propargyl in the presence of β-Gal, followed by HPLC. The data set is classed as biochemical. Particulars: 15 μM compound, β-Gal 0.25 ng/μL, 0.1 M phosphate buffer pH 7.3, 37° C., after 1 hour. As to the method:
To 0.1 M phosphate buffer (pH 7.3) containing Gal-Bhcmoc-propargyl (final concentration of 15 μM), mercaptoethanol (0.11 M), and magnesium chloride (1 mM), β-Gal was added to a final concentration of 0.25 ng/μL. While the reaction solution was kept at 37° C., the reaction progress was followed by HPLC (see Table 2 for analytical conditions).

Chain of β-Gal (P00722 2-1024): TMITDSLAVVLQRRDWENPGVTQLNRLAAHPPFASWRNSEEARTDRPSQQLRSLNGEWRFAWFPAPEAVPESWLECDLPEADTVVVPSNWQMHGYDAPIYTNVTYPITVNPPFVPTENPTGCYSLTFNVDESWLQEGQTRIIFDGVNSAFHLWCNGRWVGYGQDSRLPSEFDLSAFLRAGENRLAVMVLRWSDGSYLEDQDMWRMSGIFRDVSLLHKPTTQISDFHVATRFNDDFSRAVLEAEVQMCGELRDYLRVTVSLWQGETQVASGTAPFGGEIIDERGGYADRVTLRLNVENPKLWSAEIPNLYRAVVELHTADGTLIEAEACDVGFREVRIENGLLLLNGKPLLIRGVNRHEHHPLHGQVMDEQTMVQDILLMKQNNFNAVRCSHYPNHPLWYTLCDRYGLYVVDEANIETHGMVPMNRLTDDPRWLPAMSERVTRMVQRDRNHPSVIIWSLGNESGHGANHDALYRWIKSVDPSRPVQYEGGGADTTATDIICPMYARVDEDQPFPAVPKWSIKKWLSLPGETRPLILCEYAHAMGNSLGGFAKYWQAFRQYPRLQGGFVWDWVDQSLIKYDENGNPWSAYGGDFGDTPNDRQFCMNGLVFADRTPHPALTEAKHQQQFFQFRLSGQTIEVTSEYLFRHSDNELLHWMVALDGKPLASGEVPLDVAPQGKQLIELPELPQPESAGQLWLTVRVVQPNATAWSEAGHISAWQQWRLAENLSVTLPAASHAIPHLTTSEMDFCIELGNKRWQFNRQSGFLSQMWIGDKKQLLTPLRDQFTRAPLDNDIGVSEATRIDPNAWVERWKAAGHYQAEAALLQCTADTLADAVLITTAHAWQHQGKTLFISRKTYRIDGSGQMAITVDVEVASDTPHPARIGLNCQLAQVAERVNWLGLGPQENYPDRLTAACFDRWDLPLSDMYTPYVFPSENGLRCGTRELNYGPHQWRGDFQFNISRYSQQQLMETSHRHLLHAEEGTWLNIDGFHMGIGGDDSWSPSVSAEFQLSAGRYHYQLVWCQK

On to `C#CCNC(=O)OCc1cc(=O)oc2cc(O)c(Br)cc12` [Bhcmoc-propargyl, (6-bromo-7-hydroxycoumarin-4-yl)methoxycarbonylpropargylamide], for which the “photocleaving (decrease of compound) on 405-nm photoirradiation” value in data set [1] was “decreases in Bhcmoc-propargyl and increases in the photocleaved product could be confirmed”. Moreover, in data set [2], the εmax was 17400 M⁻¹ cm⁻¹ and the λmax is 369 nm.

For `C#CCNC(=O)OCc1cc(=O)oc2cc(O[C@@H]3O[C@H](CO)[C@H](O)[C@H](O)[C@H]3O)c(Br)cc12` [Gal-Bhcmoc-propargyl], the “conversion to Bhcmoc-propargyl (Bhc group) by β-Gal” value in data set [3] is on record as “completely converted”. Also, the “photocleaving (decrease of compound) on 405-nm photoirradiation” value in data set [1] is “no decrease was confirmed”.
